The target of test [1] is T1, IRAK4 (Homo sapiens (Human), UniProt Q9NWZ3). Kind of test: Immunoblotting, IRAK4 degradation in BCWM.1 cells. As to conditions: overnight treatment. The test is classed as cell-based. On the procedure:
(§1) The degradation of IRAK1 or IRAK4 proteins in BCWM.1 cells was determined by immunoblotting using BCWM.1 total cell lysates prepared following overnight treatment with IRAK1/4 degraders or inhibitors using anti-IRAK1 and anti-IRAK4 antibodies (Cell Signaling Technologies, Danvers Mass.). Anti-GAPDH antibody (Santa Cruz Biotechnology) was used for determination of protein loading.
Background: In western blotting, separated proteins are transferred to a membrane and probed.

Test [2] addresses T2, IRAK1 (Homo sapiens (Human), UniProt P51617). The test is described as follows: Immunoblotting, IRAK1 degradation in BCWM.1 cells. The format is cell-based. As to conditions: overnight treatment. On the procedure: as §1
Test [3] has as its target T1, IRAK4. Kind of test: Z'-LYTE kinase assay, IRAK4. The format is biochemical. Conditions: Z'-LYTE kinase assay format. From the text:
(§2) The IRAK1 and IRAK 4 IC50 values for various compounds disclosed herein generated from an Adapta® kinase assay format, and a Z′-LYTE™ kinases assay format, respectively, are shown in Table 1.

In test [4] the target is T2, IRAK1. Kind of test: Adapta kinase assay, IRAK1. The test is classed as biochemical. As to conditions: Adapta kinase assay format.
Text: as §2

The mark [5] stands for this setting: concentrations as high as 10 μM.

Usually IC50 stands for the concentration needed to halve the response being measured. A lower IC50 goes with inhibition by little substance.

T1 sequence (Q9NWZ3 whole entry): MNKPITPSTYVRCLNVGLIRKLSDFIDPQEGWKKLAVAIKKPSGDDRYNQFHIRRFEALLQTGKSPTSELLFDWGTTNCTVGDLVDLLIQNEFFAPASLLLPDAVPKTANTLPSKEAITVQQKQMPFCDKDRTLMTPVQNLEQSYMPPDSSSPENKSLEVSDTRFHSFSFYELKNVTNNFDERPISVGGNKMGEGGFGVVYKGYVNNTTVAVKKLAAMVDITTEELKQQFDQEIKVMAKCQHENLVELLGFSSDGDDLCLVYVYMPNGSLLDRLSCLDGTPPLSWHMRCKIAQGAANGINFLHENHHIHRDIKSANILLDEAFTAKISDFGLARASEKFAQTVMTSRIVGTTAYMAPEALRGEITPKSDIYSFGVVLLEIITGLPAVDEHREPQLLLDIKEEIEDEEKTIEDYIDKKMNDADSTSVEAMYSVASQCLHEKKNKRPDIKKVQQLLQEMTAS
T2 sequence (P51617 whole entry): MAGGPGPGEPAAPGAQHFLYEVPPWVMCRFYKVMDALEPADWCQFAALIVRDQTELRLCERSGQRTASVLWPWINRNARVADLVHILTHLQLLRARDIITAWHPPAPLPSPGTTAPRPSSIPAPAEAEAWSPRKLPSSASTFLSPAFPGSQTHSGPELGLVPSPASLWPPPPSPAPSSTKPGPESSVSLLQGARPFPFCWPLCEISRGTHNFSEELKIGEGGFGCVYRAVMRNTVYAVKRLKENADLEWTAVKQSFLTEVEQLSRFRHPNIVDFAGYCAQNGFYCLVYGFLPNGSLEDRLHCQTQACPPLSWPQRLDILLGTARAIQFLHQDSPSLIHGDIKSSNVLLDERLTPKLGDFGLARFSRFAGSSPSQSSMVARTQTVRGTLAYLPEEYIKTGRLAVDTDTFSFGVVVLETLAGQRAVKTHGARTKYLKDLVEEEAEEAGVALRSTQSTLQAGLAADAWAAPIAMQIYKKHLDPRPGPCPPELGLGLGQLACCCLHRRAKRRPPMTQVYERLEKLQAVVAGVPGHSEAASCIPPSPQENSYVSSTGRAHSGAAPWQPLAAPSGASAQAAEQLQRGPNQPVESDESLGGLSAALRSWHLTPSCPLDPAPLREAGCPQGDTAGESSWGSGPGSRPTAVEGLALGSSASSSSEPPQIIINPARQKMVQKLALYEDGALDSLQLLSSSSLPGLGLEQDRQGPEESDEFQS

Take `CN1C(=O)CCC(N2C(=O)c3cccc(NCCOCCOCCOCCOCCC(=O)N4CCC(c5cc(NC(=O)c6cccc(-c7ccn[nH]7)n6)n(-c6ccccn6)n5)CC4)c3C2=O)C1=O` (stereo not drawn) [Compound C1]: the “degradation of IRAK4 protein” value in test [1] (setting [5]) is on record as “no degradation”. For the same compound, the “degradation of IRAK1 protein” value in test [2] (setting [5]) is reported as “no degradation”.

Take `O=C1CCC(N2C(=O)c3cccc(NCCOCCOCCC(=O)N4CCC(c5cc(NC(=O)c6cccc(-c7ccn[nH]7)n6)n(-c6ccccn6)n5)CC4)c3C2=O)C(=O)N1` (stereo not drawn) [Compound 2]: the IC50 stood at 44 nM in test [3] and 42 nM in test [4].

In the case of `C=CC(=O)Nc1cccc(C(=O)Nc2ccc(NC(=O)c3cccc(-c4ccn[nH]4)n3)cc2)c1` [TL2, reference compound], the IC50 in test [3] is greater than 10000 nM; in test [4], 9 nM.

`CC(C)N1CCC(c2cc(NC(=O)c3cccc(-c4ccn[nH]4)n3)n(-c3ccccn3)n2)CC1` [TL1, reference compound]: in test [1] (concentration of 10 μM), the “effect on IRAK4 protein levels” value is on record as “no effect”. Further, the IC50 in test [3] amounted to 3 nM; in test [4], 7 nM. For the same compound, the “effect on IRAK1 protein levels” value in test [2] (concentration of 10 μM) was “no effect”.

On to `O=C1CCC(N2C(=O)c3cccc(NCCOCCOCCOCCOCCC(=O)N4CCC(c5cc(NC(=O)c6cccc(-c7ccn[nH]7)n6)n(-c6ccccn6)n5)CC4)c3C2=O)C(=O)N1` (stereo not drawn) [Compound 1, N-(3-(1-(1-((2-(2,6-dioxopiperidin-3-yl)-1,3-dioxoisoindolin-4-yl)amino)-3,6,9,12-tetraoxapentadecan-15-oyl)piperidin-4-yl)-1-(pyridin-2-yl)-1H-pyrazol-5-yl)-6-(1H-pyrazol-5-yl)picolinamide], for which, in test [1] (FIG. 4), the “degradation of IRAK4 protein” value was “degraded”. Moreover, the values for the IC50 in test [3] and in test [4] were 16 nM and 43 nM, respectively. The “degradation of IRAK1 protein” value in test [2] (FIG. 4) is “degraded”.

As to `O=C1CCC(N2Cc3c(NCCOCCOCCC(=O)N4CCC(c5cc(NC(=O)c6cccc(-c7ccn[nH]7)n6)n(-c6ccccn6)n5)CC4)cccc3C2=O)C(=O)N1` (stereo not drawn) [Compound 3, N-(3-(1-(3-(2-(2-((2-(2,6-dioxopiperidin-3-yl)-1-oxoisoindolin-4-yl)amino)ethoxy)ethoxy)propanoyl)piperidin-4-yl)-1-(pyridin-2-yl)-1H-pyrazol-5-yl)-6-(1H-pyrazol-5-yl)picolinamide], the values for the IC50 in test [3] and in test [4] were 18 nM and 40 nM, respectively.

In the case of `O=C1CCC(N2C(=O)c3cccc(OCCCCCCCCC(=O)N4CCC(c5cc(NC(=O)c6cccc(-c7ccn[nH]7)n6)n(-c6ccccn6)n5)CC4)c3C2=O)C(=O)N1` (stereo not drawn) [Compound 4, N-(3-(1-(9-((2-(2,6-dioxopiperidin-3-yl)-1,3-dioxoisoindolin-4-yl)oxy)nonanoyl)piperidin-4-yl)-1-(pyridin-2-yl)-1H-pyrazol-5-yl)-6-(1H-pyrazol-5-yl)picolinamide], the IC50 in test [3] is 142 nM; in test [4] it was 212 nM.

The values above are taken from patent publication US11542251B2, “IRAK degraders and uses thereof” (DANA-FARBER CANCER INSTITUTE, INC., priority 2018, dated 2023).
